Test: Double-blind 4-week study plus open-label extension of febuxostat in hyperuricemic subjects with gout and a history of nephrolithiasis
Format: in vivo, human
Protocol: Eighteen (18) hyperuricemic subjects with gout and a history of nephrolithiasis in their medical history were examined. Specifically, these eighteen subjects were part of a double-blind (DB) four (4) week study in which they received 40, 80 or 120 mg once daily (hereinafter referred to as “QD”) of 2-[3-cyano-4-(2-methylpropoxy)phenyl]-4-methylthiazole-5-carboxylic acid (hereinafter called “febuxostat”) or a placebo, followed by an open-label (OL) extension study of febuxostat 80 mg QD titrated to 40 mg or 120 mg QD of febuxostat based on serum uric acid levels and adverse events. The subjects were predominantly male (specifically, sixteen (16)) Caucasian, with a mean age of 55 years. Eleven (11) of the subjects had gout for more than 10 years, five (5) subjects had gout for between 5 to 10 years and two (2) subjects had gout for between 1 to 5 years. Overall, subject experienced between 1 and 20 attacks over a 2 to 45 year period prior to baseline. Twelve (12) of the subjects were classified as renally impaired (their creatinine clearance was <80 ml/minute). Six (6) subjects were considered to be uric acid overproducers (urinary uric acid excretion was greater than 800 mg/day). Comorbid conditions in these subjects included the following: hyperlipidemia (78%), hypertension (72%), obesity (56%) and coronary artery disease (17%). The mean serum urate for these subjects at baseline was 10.0 mg/dL. All subjects completed this DB study. Fifteen (15) subjects rolled over to the OL study with thirteen (13) completing treatment for a duration of greater than thirty (30) months. The majority of subjects (11/13) received daily febuxostat in the amount of 80 mg QD with two (2) subjects having their dose titrated to febuxostat 120 mg QD as per study protocol because of a post-baseline serum urate of ≧6.0 mg/dL.

## Cc1nc(-c2ccc(OCC(C)C)c(C#N)c2)sc1C(=O)O [febuxostat, 2-[3-cyano-4-(2-methylpropoxy)phenyl]-4-methylthiazole-5-carboxylic acid]
DB and OL portions, greater than 30 months of febuxostat treatment, three stones in total, one occurred on placebo, all calcium oxalate
  subjects reporting kidney stones: 2 subjects out of the 18 subjects
DB and OL study, febuxostat 40-120 mg QD
  adverse events: self-limiting and transient
At last visit versus baseline, febuxostat 40, 80 or 120 mg QD
  mean reduction in serum urate: 47%
Hyperuricemic gout subjects with history of nephrolithiasis, febuxostat 40, 80 or 120 mg QD, baseline mean serum urate 10.0 mg/dL
  mean serum urate at last visit: 5.2 mg/dL
